Test results: US9073906B2, “Sulfamide derivative having an adamantyl group and its pharmaceutically acceptable salt” (KOREA RESEARCH INSTITUTE OF CHEMICAL TECHNOLOGY, priority 2011, dated 2015)

How the values were obtained:
[1] = target: human 11β-HSD-2 (Homo sapiens (Human), UniProt P80365); assay: HTRF analysis of inhibition of 11β-HSD-2; format: cell-based; conditions: human 11β-HSD-2, HTRF
[2] = target: human 11β-HSD1 (Homo sapiens (Human), UniProt P28845); assay: HTRF cortisol assay in 11β-HSD1 overexpressing CHO cells; format: cell-based; conditions: human 11β-HSD1 overexpressing CHO cells, 160 nM cortisone, 3 hr at 37° C., read-out: IC50(nM) to 11β-HSD-1
Sequence of human 11β-HSD1 (P28845 whole entry): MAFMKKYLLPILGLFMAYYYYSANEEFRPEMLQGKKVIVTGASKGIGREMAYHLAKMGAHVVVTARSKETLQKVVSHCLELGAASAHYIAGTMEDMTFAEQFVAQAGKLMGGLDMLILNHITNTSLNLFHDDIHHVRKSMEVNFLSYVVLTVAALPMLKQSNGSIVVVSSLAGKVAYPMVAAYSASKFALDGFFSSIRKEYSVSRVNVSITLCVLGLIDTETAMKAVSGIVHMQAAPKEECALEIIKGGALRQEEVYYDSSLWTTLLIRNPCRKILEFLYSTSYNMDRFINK
Description: The full-length cDNA molecule coding for human or mouse 11β-HSD1 was inserted into pcDNA (Promega) as mammalian expression vectors and transformed into CHO cells for 5 hr using Lipofectamine plus (Invitrogen) in accordance with manufacturer's manual, followed by stabilization for 48 hr. The CHO cells were incubated with 0.8 μg/ml puromycin (Sigma) once every three days for two weeks to obtain human or mouse 11β-HSD1 overexpressing cells. The cells were grown and frozen, and thawed for enzyme inhibition tests.
The in vitro inhibitory activities of the novel compounds to human 11β-HSD1 were evaluated in accordance with homogenous time-resolved fluorescence (HTRF).
The human or mouse 11β-HSD1 overexpressing cells were subcultured at the number of 2.5×10^4 cells in 96-well plate and stabilized for 24 hr. […] Then, samples of the medium (10 μl) were transferred to 384-well plate and the amounts of cortisol produced were measured using a cortisol kit (Cisbio international) in accordance with manufacturer's instruction. […] Delta F value=(Ratio of compounds−Ratio of negative)/Ratio of negative×100 2. Normalized value=Delta F value of compounds−Delta F value of control 3. % inhibition=Normalized value of compounds/Normalized value of background×100 4.

Sequence of human 11β-HSD-2 (P80365 whole entry): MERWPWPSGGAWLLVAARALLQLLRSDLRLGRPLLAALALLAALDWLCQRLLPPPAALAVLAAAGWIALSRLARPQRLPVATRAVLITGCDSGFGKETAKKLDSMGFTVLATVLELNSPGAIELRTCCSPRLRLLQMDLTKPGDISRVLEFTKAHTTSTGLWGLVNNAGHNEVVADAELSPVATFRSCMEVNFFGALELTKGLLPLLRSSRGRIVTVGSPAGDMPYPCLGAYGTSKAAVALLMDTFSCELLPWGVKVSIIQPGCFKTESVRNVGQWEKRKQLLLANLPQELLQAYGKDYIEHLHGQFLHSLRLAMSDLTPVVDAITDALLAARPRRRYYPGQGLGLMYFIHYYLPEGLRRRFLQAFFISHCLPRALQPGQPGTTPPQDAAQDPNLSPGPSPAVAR

| SMILES | IC50 [1] [nM] | IC50 [2] [nM] |
| --- | --- | --- |
| O=C(CN1CCCN(Cc2ccccc2)S1(=O)=O)NC1C2CC3CC(C2)CC1C3 (centres unmarked) [Compound 5, N-(adamantan-2-yl)-2-(6-benzyl-1,1-dioxido-1,2,6-thiadiazinan-2-yl)acetamide] | > 10000 | 360 |
| NC(=O)C12CC3CC(C1)C(NC(=O)CN1CC4(CC4)CN(c4c(Cl)cc(Cl)cc4Cl)S1(=O)=O)C(C3)C2 (centres unmarked) [Compound 176, 4-(2-(6,6-dioxido-7-(2,4,6-trichlorophenyl)-6-thia-5,7-diazaspiro[2,5]octane-5-yl)acetamido)adamantan-1-carboxamide] | > 10000 | 5 |
| NC(=O)C12CC3CC(C1)C(NC(=O)CN1CCN(c4c(Cl)cc(Cl)cc4Cl)S1(=O)=O)C(C3)C2 (centres unmarked) [Compound 124, 4-(2-(1,1-dioxido-5-(2,4,6-trichlorophenyl)-1,2,5-thiadiazolidin-2-yl)acetamido) adamantan-1-carboxamide] | > 10000 | 187 |
| NC(=O)C12CC3CC(C1)C(NC(=O)CN1CCCN(c4ccc(F)cc4)S1(=O)=O)C(C3)C2 (centres unmarked) [Compound 44, 4-(2-(6-(4-fluorophenyl)-1,1-dioxido-1,2,6-thiadiazinan-2-yl)acetamido)adamantan-1-carboxamide] | > 10000 | 79 |
| NC(=O)C12CC3CC(C1)C(NC(=O)CN1CCCN(c4cccc(F)c4)S1(=O)=O)C(C3)C2 (centres unmarked) [Compound 69, 4-(2-(6-(3-fluorophenyl)-1,1-dioxido-1,2,6-thiadiazinan-2-yl)acetamido)adamantan-1-carboxamide] | > 10000 | 3 |
| NC(=O)C12CC3CC(C1)C(NC(=O)CN1CCCN(c4c(Cl)cc(Cl)cc4Cl)S1(=O)=O)C(C3)C2 (centres unmarked) [Compound 88, 4-(2-(1,1-dioxido-6-(2,4,6-trichlorophenyl)-1,2,6-thiadiazinan-2-yl)acetamido)adamantan-1-carboxamide] | > 10000 | 0.2 |
| C=C1CN(CC(=O)NC2C3CC4CC2CC(C(N)=O)(C4)C3)S(=O)(=O)N(c2c(Cl)cc(Cl)cc2Cl)C1 (centres unmarked) [Compound 175, 4-(2-(4-methylene-1,1-dioxido-6-(2,4,6-trichlorophenyl)-1,2,6-thiadiazinan-2-yl)acetamido)adamantan-1-carboxamide] | > 10000 | 14 |
| CC1CN(CC(=O)NC2C3CC4CC2CC(C(N)=O)(C4)C3)S(=O)(=O)N(c2c(Cl)cc(Cl)cc2Cl)C1 (centres unmarked) [Compound 156, 4-(2-(4-methyl-1,1-dioxido-6-(2,4,6-trichlorophenyl)-1,2,6-thiadiazinan-2-yl)acetamido)adamantan-1-carboxamide] | > 10000 | 1 |
| CC(C)(C)OC(=O)N1CCCN(CC(=O)NC2C3CC4CC(C3)CC2C4)S1(=O)=O (centres unmarked) [Compound 3, tert-butyl 6-(2-(adamantan-2-ylamino)-2-oxoethyl)-1,2,6-thiadiazinan-2-carboxylate 1,1-dioxide] | > 10000 | 363 |
| CC1(C)CN(CC(=O)NC2C3CC4CC2CC(C(N)=O)(C4)C3)S(=O)(=O)N(c2c(Cl)cc(Cl)cc2Cl)C1 (centres unmarked) [Compound 177, 4-(2-(4,4-dimethyl-1,1-dioxido-6-(2,4,6-trichlorophenyl)-1,2,6-thiadiazinan-2-yl)acetamido)adamantan-1-carboxamide] | > 10000 | 5 |
| C[C@H]1CN(CC(=O)NC2C3CC4CC2CC(C(N)=O)(C4)C3)S(=O)(=O)N(c2c(Cl)cc(C(F)(F)F)cc2Cl)C1 (stereo partly drawn) [Compound 195, 4-(2-((S)-6-(2,6-dichloro-4-(trifluoromethyl)phen-yl)-4-methyl-1,1-dioxido-1,2,6-thiadiazinan-2-yl)acetamido)adamantan-1-carboxamide] | > 10000 | – |
| NC(=O)C12CC3CC(C1)C(NC(=O)CN1CCCN(c4ccccc4)S1(=O)=O)C(C3)C2 (centres unmarked) [Compound 60, 4-(2-(1,1-dioxido-6-phenyl-1,2,6-thiadiazinan-2-yl)acetamido)adamantan-1-carboxamide] | > 10000 | 17 |
| CN(CC(=O)NC1C2CC3CC1CC(C(N)=O)(C3)C2)S(=O)(=O)N(C)c1c(Cl)cc(Cl)cc1Cl (centres unmarked) [Compound 123, 4-(2-(methyl(N-methyl-N-(2,4,6-trichlorophenyl)sulfa-moyl)amino)acetamido) adamantan-1-carboxamide] | > 10000 | 0.8 |
| Cc1ccc(N2CCCN(CC(=O)NC3C4CC5CC(C4)CC3C5)S2(=O)=O)cc1 (centres unmarked) [Compound 24, N-(adamantan-2-yl)-2-(1,1-dioxido-6-(p-tolyl)-1,2,6-thiadiazinan-2-yl)acetamide] | > 10000 | 3370 |
| NC(=O)C12CC3CC(C1)C(NC(=O)CN1CCCN(c4c(F)cc(F)cc4F)S1(=O)=O)C(C3)C2 (centres unmarked) [Compound 89, 4-(2-(1,1-dioxido-6-(2,4,6-trifluorophenyl)-1,2,6-thiadiazinan-2-yl)acetamido)adamantan-1-carboxamide] | > 10000 | 20 |
| NC(=O)[C@]12CC3CC(C1)[C@@H](NC(=O)CN1CC(F)(F)CN(c4c(Cl)cc(Cl)cc4Cl)S1(=O)=O)C(C3)C2 [Compound 172, 4-(2-(4,4-difluoro-1,1-dioxido-6-(2,4,6-trichlorophenyl)-1,2,6-thiadiazinan-2-yl)acetamido)adamantan-1-carboxamide (E form)] | > 10000 | – |
| NC(=O)C12CC3CC(C1)C(NC(=O)CN1CCCN(c4ccccc4F)S1(=O)=O)C(C3)C2 (centres unmarked) [Compound 59, 4-(2-(6-(2-fluorophenyl)-1,1-dioxido-1,2,6-thiadiazinan-2-yl)-acetamido)adamantan-1-carboxamide] | > 10000 | 14 |
| CC1CCN(c2c(Cl)cc(Cl)cc2Cl)S(=O)(=O)N1CC(=O)NC1C2CC3CC1CC(C(N)=O)(C3)C2 (centres unmarked) [Compound 128, 4-(2-(3-methyl-1,1-dioxido-6-(2,4,6-trichlorophenyl)-1,2,6-thiadiazinan-2-yl)acetamido) adamantan-1-carboxamide] | > 10000 | 0.1 |
| CC1CN(CC(=O)NC2C3CC4CC2CC(C(N)=O)(C4)C3)S(=O)(=O)N(c2c(Cl)cc(C(F)(F)F)cc2Cl)C1 (centres unmarked) [Compound 183, (E) 4-(2-(6-(2,6-dichloro-4-(trifluoromethyl)phenyl)-4-methyl-1,1-dioxido-1,2,6-thiadiazinan-2-yl)acetamido)adamantan-1-carboxamide] | > 10000 | 4.8 |
| O=C(CN1CCCN(c2ccccc2)S1(=O)=O)NC1C2CC3CC(C2)CC1C3 (centres unmarked) [Compound 2, N-(adamantan-2-yl)-(1,1-dioxido-6-phenyl-1,2,6-thiadiazinan-2-yl)acetamide] | > 10000 | 12 |
| C[C@@H]1CN(CC(=O)NC2C3CC4CC2CC(C(N)=O)(C4)C3)S(=O)(=O)N(c2c(Cl)cc(C(F)(F)F)cc2Cl)C1 (stereo partly drawn) [Compound 196, 4-(2-((R)-6-(2,6-dichloro-4-(trifluoromethyl)phen-yl)-4-methyl-1,1-dioxido-1,2,6-thiadiazinan-2-yl)acetamido)adamantan-1-carboxamide] | > 10000 | 1.3 |
| NC(=O)C12CC3CC(C1)C(NC(=O)CN1CCCCN(c4c(Cl)cc(Cl)cc4Cl)S1(=O)=O)C(C3)C2 (centres unmarked) [Compound 122, 4-(2-(1,1-dioxido-7-(2,4,6-trichlorophenyl)-1,2,7-thiadiazepane-2-yl)acetamido) adamantan-1-carboxamide] | > 10000 | 0.4 |
| O=C(CN1CCCN(Cc2ccccc2F)S1(=O)=O)NC1C2CC3CC(C2)CC1C3 (centres unmarked) [Compound 14, N-(adamantan-2-yl)-2-(6-(2-fluorobenzyl)-1,1-dioxido-1,2,6-thiadiazinan-2-yl)acetamide] | > 10000 | 1660 |
